The test system of data set [1] is patients after severe aneurysmal SAH (WFNS grade 3, 4 or 5). Particulars: for percentage change in ADR, median: (during infusion-baseline)/baseline x100; for mean percentage change from baseline ADR over time, FIG. 3: after commencement of the nitrite infusion. The text has this: Patients aged 18-80 years admitted to the Neurosciences Intensive Care Unit (NICU) at the John Radcliffe Hospital, Oxford after having suffered severe aneurysmal SAH (WFNS grade 3, 4 or 5 at time of presentation) were eligible for inclusion in the study. There were no specific selection criteria apart from grade of SAH, and the absence of any exclusion criteria (see below).
Following definitive endovascular aneurysm treatment, each patient underwent a two hour period of continuous EEG monitoring (Porti 7 system, Twente Medical Systems International) on one occasion as soon as was practically possible after endovascular securing of the aneurysm.
(§1) Sedative drug levels, muscle relaxants and vasopressors were documented and changes in infusion rates were minimised for the duration of the recording.
We used a simplified EEG montage that aimed for compromise between stable maintenance of recording and full coverage of all vascular territories. Consequently, 7-13 unipolar EEG electrodes (depending on the presence of external ventricular drains and intracranial pressure (ICP) monitors) at the following positions defined according to the international 10-20 system: Cz, Fz, Pz, Fp1, Fp2, F3, F4, P3, P4, T3, T4, O1, O2. EEG data were digitized at a sampling rate of 2048 Hz, with a high pass filter of 0.5 Hz and a low pass filter of 30 Hz.
Each surviving patient was followed up at three to six months post-rupture. Telephone follow up was performed for patients who were unable to attend hospital due to their clinical status. Primary outcome was measured by the presence or absence of delayed ischemia. Long term outcome was assessed by modified Rankin scale at 3 months, via structured standardised questions in person or by telephone. The modified Rankin scale, is a commonly used grading system that measures the degree of disability or dependence in the daily activities of people who have suffered a neurological insult. Good outcome is defined as a score of 0-2, whereas poor outcome is defined as ≥3.
Inc.) code and the EEGLAB v13.4.3b analysis toolbox. Datasets were re-referenced to the average of bilateral mastoid reference electrodes and band pass filtered from 0.5 to 15 Hz using a linear finite impulse response (FIR) filter. Each EEG recording was visually inspected and artefacts were manually removed. Channels showing evidence of excessive amounts of noise were removed from each recording.
Spectral analysis was carried out using FieldTrip, a MATLAB software toolbox for EEG analysis. Data was windowed into 30-second segments that overlapped by 50%. Time-frequency analysis was performed using a multi-taper spectral estimation using discrete prolate spheroidal (Slepian) sequences with 14 tapers, and fast Fourier transform algorithm for each electrode channel. Five 60-second epochs were selected randomly from the first (baseline) and last thirty minutes of the recording (during infusion). The epochs were separated by at least 60 seconds to avoid autocorrelation. The corresponding frequency distribution in each epoch was identified, which enabled determination of power values in the following frequency bands: delta 1-4 Hz, alpha 8-12 Hz and total low frequency power 1-15 Hz.
Statistical analysis was carried out using R and the analysis package nlme. We applied a two level linear mixed effects multilevel model to the data to allow for within patient correlation due to repeated measures on each patient over time. […] A qqnorm plot was used to identify any outliers and these were subsequently eliminated from the model. Goodness of fit was assessed via Shapiro-Wilk normality tests on fixed and random effect residuals, and calculation of R^2 for the model.

Data set [2] has the same test system. The protocol: as §1
The patients also underwent simultaneous transcranial Doppler (TCD) monitoring. Insonation of the MCA M1 segment was performed unilaterally on the side with the best window using colour-coded duplex ultrasound (EZ-Dop, DWL; 2 Mz probe).
The patient's PETCO2, end-tidal O2, ABP and SpO2 were recorded continuously and collected on a Power-1401 data acquisition interface (Cambridge Electronic Design). […] Arterial CO2 values were collected once during the duration of the recording as part of routine clinical care.
Waveform analysis was performed using custom written MATLAB code, enabling calculation of average pre and during infusion values for TCD middle cerebral artery velocity (MCAV) ABP, PETCO2, end-tidal O2 and ICP.

Each structure is given as a SMILES string. Read-outs that look alike come from different tables or passages of the source.

As for `O=NO` [sodium nitrite], in data set [1] (good outcome group), the “percentage change in ADR, median” value is on record as “increases” and the “mean percentage change from baseline ADR over time, FIG. 3” value was “increases”. The “ADR during infusion, median” value in data set [1] (good outcome group, baseline median 0.03) amounted to 0.05. In addition, the “delta power response to a 1-hour infusion (discussion)” value in data set [1] (patients with good outcome) is recorded as “significant increase”. In data set [1] (poor outcome group), the “percentage change in ADR, median” value was “no significant differences” and the “mean percentage change from baseline ADR over time, FIG. 3” value is given as “does not change”. The “baseline versus during infusion ADR” value in data set [1] (poor outcome patients (mRS >=3)) was “no significant differences”. Besides, the “mean MAP in response to sodium nitrite” value in data set [2] (14 patients, from a mean MAP of 87 mmHg, p=0.026) was determined as 84 mmHg. The “change in TCD, MCAV as a result of sodium nitrite infusion” value in data set [2] (pre versus during infusion) is given as “no significant changes”. For the same compound, the “change in ICP as a result of sodium nitrite infusion” value in data set [2] (pre versus during infusion, 10 patients) was “no significant changes”. The “change in end tidal CO2 as a result of sodium nitrite infusion” value in data set [2] (pre versus during infusion, 13 patients) is “no significant changes”.
